Source: US20210283163A1, “COMPOSITIONS AND METHODS FOR THE TREATMENT OF ACUTE AND CHRONIC PRURITIS” (Duke University, priority 2018, published 2021)

Experiments:
[1] = system: mice; test: Persistent itch after intradermal adenovirus (AV) overexpression of hsa-miR-711; format: in vivo, mouse; settings: 10 days after the AV injection, A-967079 50 μM, hsa-miR-711 inhibitor 100 μM, blocking peptide 2 μM
Protocol: Behavioral Assessment for Scratching (Itch) and Wiping (Pain). Mice were shaved on the cheek or nape after a brief anesthesia with isoflurane. Before experiments, mice were habituated in small plastic chambers (14×18×12 cm) daily for two days. The room temperature and humidity remained stable for all the experiments. […] After the injection, the number of scratches in 60 min was counted. A scratch was counted when a mouse lifted its hind paw to scratch the shaved region and returned the paw to the floor or to the mouth. A bout of wiping was defined as a continuous wiping movement with a forepaw directing at the area of the injection area (Shimada and LaMotte, Pain 2008, 139, 681-687). Scratching and wiping behavior was videoed for 30 min or 60 min using Sony HDR-CX610 camera. The video was subsequently played back offline and the numbers of scratches and wipes were quantified in a blinded manner.
miRNA Measurement by Quantitative Real-Time RT-PCR (qPCR). Total RNA was isolated from serum of CTCL mice or adenovirus-treated mice using Qiazol Lysis Reagent (QIAGEN) together with miRNeasy Serum/Plasma Kit (Park et al., Neuron 2014, 82, 47-54). All RNA samples were immediately used or kept at −80° C. until further processing. To convert mature miRNA into cDNA, 6 μl of total RNA solution were reverse transcribed using the miScript II RT Kit (including polyadenylation of miRNAs and reverse transcription using an oligo-dT that binds to a universal RT-sequence). Specific miRNA levels were quantified by qPCR using miScript SYBR Green Kit including miScript miRNA assay for hsa-miR-711, hsa-miR21, hsamiR155, and hsa-miR-326, together with the universal RT primer, according to the manufacturer's protocol (CFX96 Real-Time system, Bio-Rad). Relative quantities of miRNAs were calculated using the Ct value after normalization to control miRNAs. Caenorhabditis elegans miRNA-39 (cel-miRNA-39) was included as spiked-in control for extracellular miRNA.

[2] = target: T1, mmu-TRPA1 (Mus musculus, UniProt Q8BLA8); test: Whole-cell patch clamp in CHO cells transfected with wild-type mmu-Trpa1 cDNA; format: cell-based; settings: miR-711 10 μM, AITC 50 μM
T1 construct: HA; expressed in transfected cells; host or cells: CHO cells (ATCC CRL-9096), transient transfection with Lipofectamine 2000
T1 sequence (Q8BLA8 whole entry): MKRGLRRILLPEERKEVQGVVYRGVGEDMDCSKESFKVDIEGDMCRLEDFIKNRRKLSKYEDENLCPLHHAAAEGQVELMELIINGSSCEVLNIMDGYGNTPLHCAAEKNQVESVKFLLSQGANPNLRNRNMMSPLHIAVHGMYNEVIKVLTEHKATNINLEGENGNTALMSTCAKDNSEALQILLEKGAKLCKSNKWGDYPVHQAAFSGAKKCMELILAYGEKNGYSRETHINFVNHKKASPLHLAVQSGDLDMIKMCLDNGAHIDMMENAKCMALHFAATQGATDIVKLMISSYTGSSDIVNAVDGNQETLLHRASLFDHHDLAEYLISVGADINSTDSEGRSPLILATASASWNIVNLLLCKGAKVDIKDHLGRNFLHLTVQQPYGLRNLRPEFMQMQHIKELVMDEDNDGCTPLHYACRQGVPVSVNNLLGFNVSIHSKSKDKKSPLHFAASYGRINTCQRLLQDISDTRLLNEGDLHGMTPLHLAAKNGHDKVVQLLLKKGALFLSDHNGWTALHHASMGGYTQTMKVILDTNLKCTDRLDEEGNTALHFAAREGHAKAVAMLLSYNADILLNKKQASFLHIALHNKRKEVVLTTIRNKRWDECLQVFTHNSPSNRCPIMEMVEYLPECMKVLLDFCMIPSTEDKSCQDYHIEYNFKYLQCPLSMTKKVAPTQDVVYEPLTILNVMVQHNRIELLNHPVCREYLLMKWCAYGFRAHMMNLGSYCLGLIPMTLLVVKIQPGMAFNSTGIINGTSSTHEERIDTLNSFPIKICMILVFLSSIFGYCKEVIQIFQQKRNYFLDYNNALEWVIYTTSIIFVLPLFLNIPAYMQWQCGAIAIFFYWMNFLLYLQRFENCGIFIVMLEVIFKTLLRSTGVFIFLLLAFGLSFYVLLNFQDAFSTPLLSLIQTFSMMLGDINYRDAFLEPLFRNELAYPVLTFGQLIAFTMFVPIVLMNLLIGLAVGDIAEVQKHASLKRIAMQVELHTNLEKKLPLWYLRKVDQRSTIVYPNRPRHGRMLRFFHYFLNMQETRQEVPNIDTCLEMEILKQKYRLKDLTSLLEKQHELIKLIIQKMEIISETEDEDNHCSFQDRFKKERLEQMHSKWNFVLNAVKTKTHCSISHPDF
Protocol: Constructs. The cDNAs of mouse pcDNA3.1-Trpa1, pcDNA3.1-Trpv1, pcDNA3.1-Trpv2, pcDNA3.1-Trpv3, and pcDNA3.1-Trpv4 were kindly provided Dr. Sun Work Hwang from Korea University. Mouse Trpa1 cDNA was subcloned into pCGN-HA backbone (Addgene) using In-Fusion HD Cloning Kit (Clontech Laboratories, CA). Q5 Site-Directed Mutagenesis Kit was used to generate mTrpa1 mutant (M1-M13) based on pCGN-mTrpa1.
Cell Culture and Transfection. CD4^+ Myla cell line was cultured in RPMI 1640 media (GIBCO), supplemented with 2 mM Glutamine (GIBCO), 100 U/mL IL-2 (Sigma), 100 U/mL IL-4 (Sigma), and 10% human AB serum (Sigma). HuT 102 cell line was cultured in RPMI 1640 supplemented with pyruvate, HEPES, and 10% (v/v) fetal bovine serum (HyClone). HEK293-hTRPA1 stable cell line was cultured in MEM (GIBCO) containing 2 mM Glutamine, 4 μg/mL Blasticidin, 10% FBS (v/v). B16 and CHO cells were cultured in high glucose (4.5 g/L) Dulbecco's Modified Eagle's Medium (GIBCO) containing 10% (v/v) fetal bovine serum (GIBCO). Culture media were supplemented with 50 units/mL of penicillin and 50 μg/mL streptomycin, and cultures were maintained with 5% CO2 in 37° C. incubator. Transfection (2 μg cDNA) was performed with Lipofectamine™ 2000 Reagent (Invitrogen) at 80% confluency and the transfected cells were cultured in the same media for 48 hr before electrophysiological and biochemical studies. […]

[3] = system: mice; test: Evans blue extravasation, neurogenic inflammation in a hind paw; format: in vivo, mouse; settings: intraplantar, 10 μL; capsaicin 1 mM, AITC 5 mM, miR-711 1 mM
Protocol: Evans Blue Extravasation. To examine neurogenic inflammation in a hind paw (Han et al., Neuron 2016, 92, 1279-1293), mice were anesthetized with 5% isoflurane. Evans blue (50 mg/kg body weight) was given intravenously 10 min before neurogenic irritant application. […] Evans blue was extracted from the tissues by incubation in 400 μL formamide at 37° C. for 48 hr. Evans blue was quantified by measuring the optical density of the formamide extract at 620 nm. Absorbance was normalized to per gram of tissue weight.

Molecule | effect on hsa-miR-711 AV-induced persistent itch [1] | inward currents [2] | neurogenic inflammation in hind paws (Evans blue test) [3]
CCC(=N\O)/C(C)=C/c1ccc(F)cc1 [A967079, (1E,3E)-1-(4-Fluorophenyl)-2-methyl-1-pentene-3-one oxime] | Inhibition |  | 
C=CCN=C=S [AITC] |  | induce inward currents | elicited robust neurogenic inflammation
NH2-FRNELAYPVLTFGQL-COOH (H-FRNELAYPVLTFGQL-OH) [blocking peptide] | Inhibition |  | 
miR-711: mmu-miR-711: gggacccggggagagauguaag (SEQ ID NO: 5) (GGGACCCGGGGAGAGAUGUAAG; chemistry not given here) |  | induce inward currents | failed to elicit neurogenic inflammation
